According to patent publication US10603332B2, “Anti-obesity composition” (SUNSTAR INC., priority 2013, dated 2020):

Tested on: preadipocyte 3T3-L1 cells
Assay: Suppression of fat droplet accumulation in adipocytes (Oil Red O staining, OD 490 nm)
Type: cell-based, mouse
Settings: for Relative amount of fat accumulation: 3T3-L1 adipocytes, samples added Day 0 to Day 7 or 8 at the concentrations of each (Comparative) Example, medium to which nothing was added regarded as 100; for amount of fat accumulation: control (Comparative Example 1b) = 100; for relative amount of fat accumulation in adipocytes: control = 100
Experimental: Because they are immortalized cells, they can be mass-produced as fibroblasts before induction of differentiation. […] The passage media used were passage medium A (DMEM (4.5 g/L Glu), (Sigma, glucose, […]), 10% BS (Gibco, 16170), and 1% antibiotic (Gibco, Antibiotic-Antimycotic, 15240-062)) and passage medium B (DMEM (4.5 g/L Glu), 10% FBS (Biowest, S1560), and 1% antibiotic). The differentiation-inducing medium used was prepared by adding a 10-μg/mL insulin solution (Wako, 093-06351), 0.25 μM Dexamethasone (Sigma, D4902), and 0.11-mg/mL 3-isobutyl-1-methylxanthine (Sigma, 15879) to passage medium B. The differentiation-promoting medium used was prepared by adding a 5-μg/mL insulin solution to passage medium B. The differentiation-inducing medium and the differentiation-promoting medium were prepared before use. The oleuropein used was an “oleuropein” reagent available from Sigma. In the experiment, the oleuropein was used in such an amount that the final concentration was 50 μM. The hydroxytyrosol used was a “hydroxytyrosol” reagent available from Sigma. In the experiment, the hydroxytyrosol was used in such an amount that the final concentration was 25 μM. The willow extract used was a water extract (dry powder) of young branches including sprouts of willow (a plant mixture containing at least one or more members selected from Salix daphnoides, Salix purpurea, Salix fragilis, and Salix alba). In the experiment, the extract was diluted with the medium so that the final concentrations were 2.5, 5, 12.5, 25, 50, 100, and 200 μg/mL. The sulforaphane used was a “sulforaphane” reagent available from Sigma. In the experiment, a 100-mM DMSO solution was prepared, and diluted with the medium. A 5-mM γ-orizanol solution was prepared, and diluted with the medium. […] Embryo mouse) was grown in passage medium A. […] Sumilon Celltight C-1) so that the concentration was 2.5×10^4 cells/well. The cells were cultured for 2 days at 37° C. in the presence of 5% CO2. Thereafter, the medium was replaced with passage medium B. After confluent growth, culture was continued for about 2 days in passage medium B, and the medium was replaced with the differentiation-inducing medium (Day 0). Within 48 hours after the differentiation of the cells was induced in the differentiation-inducing medium, the medium was replaced with the differentiation-promoting medium (Day 2). Each sample was continuously added from the time of the replacement of the differentiation-inducing medium (Day 0) to Day 7 or 8. Cold 10% formalin/PBS was prepared by adding 10% (v/v) formalin to PBS (phosphate buffered saline) and adjusting the pH to 7.4, and then stored at 4° C. In this experiment, a 10% neutral buffered formalin solution (Wako, 060-03845) was used. The stain solution used was a 0.5% Oil Red O/isopropanol solution. Oil Red O (Wako, 154-02072) was dissolved in isopropanol (Sigma) by shaking to prepare a saturated solution. The 0.5% Oil Red 0/isopropanol solution and distilled water were mixed at a ratio of 3:2 immediately before use (preparation before use). The 3T3-L1 cells in the well plate cultured to Day 7 or 8 by the above culture method were used. Cold 10% formalin/PBS (0.5 mL/well) was added to the well plate containing the medium, and allowed to stand at room temperature. After the medium was removed, cold 10% formalin/PBS (0.5 mL/well) was newly added, and allowed to stand at room temperature. After the formalin solution was removed, the well plate was washed 2 or 3 times with distilled water (1 mL/well) to completely remove the remaining […]. After the well plate was washed once with 60% isopropanol (0.5 mL/well), the filtered stain solution was added at 1 mL/well, and allowed to stand at room temperature. After staining, the well plate was washed once with 60% isopropanol (0.5 mL/well), and washed 2 or 3 times with distilled water (1 mL/well). […] The eluted isopropanol solution was measured by a microplate reader at OD 490 nm. […]

Compound | Relative amount of fat accumulation | other results
C/C=C1/[C@H](O[C@@H]2O[C@H](CO)[C@@H](O)[C@H](O)[C@H]2O)OC=C(C(=O)OC)[C@H]1CC(=O)OCCc1ccc(O)c(O)c1 [1a, Oleuropein] | 99.9 | –
OCCc1ccc(O)c(O)c1 [2b, Hydroxytyrosol] | 99.3 | –
C[S+]([O-])CCCCN=C=S (stereo not shown) [3a, Sulforaphane] | 110.7 | –
OCCc1ccc(O)c(O)c1 [3b, Hydroxytyrosol] | 78.4 | –
C[S+]([O-])CCCCN=C=S (stereo not shown) [5a, Sulforaphane] | 100.9 | –
C[S+]([O-])CCCCN=C=S (stereo not shown) [5b, Sulforaphane] | 104.8 | –
C[S+]([O-])CCCCN=C=S (stereo not shown) [6b, Sulforaphane] | 100.8 | –
C[S+]([O-])CCCCN=C=S (stereo not shown) [Comparative Example 4a, Sulforaphane] | 109.8 | –
OCCc1ccc(O)c(O)c1 [hydroxytyrosol] | – | amount of fat accumulation (25 μM added alone): around 100; fat accumulation-suppressing effect higher than that of the control (37.5 μM added alone): about 25%
C/C=C1/[C@H](O[C@@H]2O[C@H](CO)[C@@H](O)[C@H](O)[C@H]2O)OC=C(C(=O)OC)[C@H]1CC(=O)OCCc1ccc(O)c(O)c1 [oleuropein] | – | relative amount of fat accumulation in adipocytes (50 μM added alone): around 100
C[S+]([O-])CCCCN=C=S (stereo not shown) [sulforaphane] | – | amount of fat accumulation (0.25 or 2.5 μM added alone): around 100; relative amount of fat accumulation in adipocytes (0.5 to 1.25 μM added alone): around 100
γ-Orizanol [7b] | 78.5 | –
γ-Orizanol [Comparative Example 6a] | 51.4 | –
γ-orizanol | – | fat accumulation-suppressing effect higher than that of the control (0.5 μM added alone): about 25%
